# Where “and” joins values, the source holds several entries; their conditions need not be identical. Equal entries are not always repeated.
# Columns and labels:
# [1] = In vitro dissolution test (compartment diffusion through dialysis membrane, sink condition); assay type: physicochemical
# Protocol: The dissolution rate of the Fluticasone propionate form A nanocrystals of the nanosuspension of the invention was assessed and compared to the dissolution rate of a standard Fluticasone propionate form 1 micronized material (reference sample). Dissolution profiles of nanocrystals of Fluticasone propionate form A of two nanosuspensions of the invention and of Fluticasone propionate form 1 micronized were performed using a dissolution method. The study was performed using a compartment diffusion analysis through a dialysis membrane and sink condition. The sink condition was achieved through the use of a receptor fluid containing 30 mM phosphate buffer, pH 7.4 with 5% HPβCD cyclodextrins and also by a complete replacement of the buffer every 24 hours to stay below the saturation point. The saturation point was estimated to be 5 μg/g under those experimental conditions and the measurements performed as well as the buffer replacement have shown a maximum concentration of 1.5 μg/g. The study was conducted at a temperature of 37° C. The details of the dissolution test method are provided below: A 5-fold dilution with the formulation vehicle (placebo solution containing all the formulation excipients including the surfactants) of two 0.1% w/w Fluticasone propionate form A nanosuspensions was conducted to obtain a final concentration of 0.02% w/w Fluticasone propionate inside the dialysis device. Fluticasone propionate form 1 micronized was suspended in the same phosphate buffer used in the receiving compartment of the dialysis system. Fluticasone propionate release was carried at 1-2 RPM. […] These aliquots were immediately centrifuged and the measurements were performed by HPLC
# [2] = 14-day repeated dose toxicokinetic study, topical application to eyelid margin; parameters: species or system Beagle dogs; conditions: dog, in vivo; for Cmax / Tmax / AUC(0-t) / AUC0-24 h: Beagle, topical or ocular; for AUC(0-t): AUC0-24 h
# Source text: The purpose of this study was to evaluate the toxicokinetic of fluticasone propionate Form A nanosuspensions of the invention (see Table 10 below) administered via topical application directly to the rim (margin) of upper and lower eyelids of both eyes of Beagle dogs.
# Fifty naïve Beagle dogs (25 males and 25 females), approximately 5-6 months old and weighing 5.7 to 8.8 kg for males and females at the outset of the study were assigned to treatment groups (groups 1-4) and to vehicle group.
# Male and female Beagle dogs were dosed with fluticasone propionate at 1.6, 9.6, and 32 μg/day (bilateral QD topical application) or at 64 μg/day (bilateral BID topical application) via eye lid applicator directly to the upper and lower eyelids of both eyes once or twice daily (minimum of 6 hours between doses) for 14 consecutive days.
# Blood for toxicokinetic evaluation was collected from all animals at selected time points on Days 1 and 14.
# Ophthalmology examinations were performed prior to treatment initiation, during the first and second weeks of dosing and during the last week of recovery. Eyes were scored once daily according to the modified Draize scale.
# The reversibility of the effects of Fluticasone Propionate nanosuspension was assessed with a 14-day recovery period.
# [3] = Particle size distribution by laser diffraction (Horiba LA-950) during preparation; assay type: physicochemical; conditions: for particle size (D50—median): materials used in the dissolution test
# Protocol: The particle size of the isolated nanocrystals was evaluated using a laser scattering Particle size distribution analyzer (Horiba LA-950).
# 4000 g of vehicle 1 were introduced into a 10 L process vessel containing a stir bar, by filtration through a PES 0.2 μm media and were set aside for further use. In a 2 L beaker, 15.04 g of the fluticasone propionate Form A nanocrystals were introduced together with some vehicle 1. […] This concentrated slurry was subject to high-shear, high-speed mixing at 6000±10 RPM for 10 minutes and the particle size distribution was tested by laser diffraction on a Horiba LA-950S2 PSD analyzer.
# The 1% w/w fluticasone propionate Form A nanocrystals slurry was subject to high-shear, high-speed mixing at 6000±10 RPM for 10 minutes and the particle size distribution was tested by laser diffraction using a Horiba LA-95052 PSD analyzer.
# The particle size distribution was tested by laser diffraction using a Horiba LA-950S2 PSD analyzer.
# [4] = particle size at preparation, Horiba LA-950
# [5] = time point 3 h, 37° C., listed as Fluticasone propionate form A nanocrystals
# [6] = time point 5 h, 37° C., listed as Fluticasone propionate form A nanocrystals
# [7] = time point 19 h, 37° C., listed as Fluticasone propionate form A nanocrystals
# [8] = time point 24 h, 37° C., listed as Fluticasone propionate form A nanocrystals
# [9] = time point 48 h, 37° C., listed as Fluticasone propionate form A nanocrystals
# [10] = time point 72 h, 37° C., listed as Fluticasone propionate form A nanocrystals
structure (smiles),measurement,setting,value
"CCC(=O)O[C@]1(C(=O)SCF)[C@H](C)C[C@H]2[C@@H]3C[C@H](F)C4=CC(=O)C=C[C@]4(C)[C@@]3(F)[C@@H](O)C[C@@]21C [Fluticasone Propionate, fluticasone propionate]",saturation point,"[1]; receptor fluid: 30 mM phosphate buffer, pH 7.4 with 5% HPβCD, 37° C.",~5 µg/g
same,Cmax,"[2]; both sexes, 1.6 ug/day, Cmax",0.0281 ± 0.0266 ng/mL
same,Tmax,"[2]; both sexes, 1.6 ug/day, Tmax",45 min
same,AUC(0-t),"[2]; both sexes, 9.6 ug/day",0.191 ± 0.335 ng·h/mL
same,Cmax,"[2]; both sexes, 9.6 ug/day, Cmax",0.0608 ± 0.0487 ng/mL
same,Tmax,"[2]; both sexes, 9.6 ug/day, Tmax",30 min
same,AUC(0-t),"[2]; both sexes, 32 ug/day",0.481 ± 0.361 ng·h/mL
same,Cmax,"[2]; both sexes, 32 ug/day, Cmax",0.13 ± 0.155 ng/mL
same,Tmax,"[2]; both sexes, 32 ug/day, Tmax",30 min
same,AUC(0-t),"[2]; both sexes, 64 ug/day",0.914 ± 0.413 ng·h/mL
same,Cmax,"[2]; both, 1.6 ug/day",0.0324 ± 0.0264 ng/mL
same,Tmax,"[2]; both, 1.6 ug/day",30 min
same,AUC0-24 h,"[2]; both, 9.6 ug/day",0.101 ± 0.102 ng·h/mL
same,Cmax,"[2]; both, 9.6 ug/day",0.0798 ± 0.07 ng/mL
same,Tmax,"[2]; both, 9.6 ug/day",30 min
same,AUC0-24 h,"[2]; both, 32 ug/day",0.482 ± 0.407 ng·h/mL
same,Cmax,"[2]; both, 32 ug/day",0.25 ± 0.219 ng/mL
same,Tmax,"[2]; both, 32 ug/day",30 min
same,AUC0-24 h,"[2]; both, 64 ug/day",0.76 ± 0.188 ng·h/mL
same,exposure versus dose,[2],dose-dependent
same,gender-related differences in exposure,[2],no discernable gender-related differences in exposure
"CCC(=O)O[C@]1(C(=O)SCF)[C@H](C)C[C@H]2[C@@H]3C[C@H](F)C4=CC(=O)C=C[C@]4(C)[C@@]3(F)[C@@H](O)C[C@@]21C [Micronized Fluticasone propionate form 1, fluticasone propionate]",particle size (D50—median),[3]; listed as Fluticasone propionate form 1 micronized material,4.64 μm
same,particle size (D50—median),[3]; listed as micronized Fluticasone propionate form 1,4.64 μm
same,% Dissolution Average %,"[1]; time point 3 h, 37° C.",0.7%
same,% Dissolution Tube #1,"[1]; time point 3 h, 37° C.",0.8%
same,% Dissolution Tube #2,"[1]; time point 3 h, 37° C.",0.5%
same,% Dissolution Tube #3,"[1]; time point 3 h, 37° C.",0.9%
same,% Dissolution Average %,"[1]; time point 5 h, 37° C.",2.6%
same,% Dissolution Tube #1,"[1]; time point 5 h, 37° C.",2.9%
same,% Dissolution Tube #2,"[1]; time point 5 h, 37° C.",1.9%
same,% Dissolution Tube #3,"[1]; time point 5 h, 37° C.",3.0%
same,% Dissolution Average %,"[1]; time point 19 h, 37° C.",19.4%
same,% Dissolution Tube #1,"[1]; time point 19 h, 37° C.",20.9%
same,% Dissolution Tube #2,"[1]; time point 19 h, 37° C.",17.1%
same,% Dissolution Tube #3,"[1]; time point 19 h, 37° C.",20.3%
same,% Dissolution Average %,"[1]; time point 24 h, 37° C.",22.6%
same,% Dissolution Tube #1,"[1]; time point 24 h, 37° C.",24.2%
same,% Dissolution Tube #2,"[1]; time point 24 h, 37° C.",20.2%
same,% Dissolution Tube #3,"[1]; time point 24 h, 37° C.",23.5%
same,% Dissolution Average %,"[1]; time point 48 h, 37° C.",48.6%
same,% Dissolution Tube #1,"[1]; time point 48 h, 37° C.",51.1%
same,% Dissolution Tube #2,"[1]; time point 48 h, 37° C.",44.0%
same,% Dissolution Tube #3,"[1]; time point 48 h, 37° C.",50.6%
same,% Dissolution Average %,"[1]; time point 72 h, 37° C.",73.4%
same,% Dissolution Tube #1,"[1]; time point 72 h, 37° C.",77.4%
same,% Dissolution Tube #2,"[1]; time point 72 h, 37° C.",66.7%
same,% Dissolution Tube #3,"[1]; time point 72 h, 37° C.",76.2%
CCC(=O)O[C@]1(C(=O)SCF)[C@H](C)C[C@H]2[C@@H]3C[C@H](F)C4=CC(=O)C=C[C@]4(C)[C@@]3(F)[C@@H](O)C[C@@]21C [fluticasone propionate],particle size (D50—median),[3],0.434 μm
same,D50,[3]; [4],0.2153 μm
same,D90,[3]; [4],0.6073 μm
same,dissolution profile compared with Fluticasone propionate form 1 micronized material,[1]; despite different particle size,similar
same,% Dissolution Average %,"[1]; time point 1 h, 37° C.",0.0%
same,% Dissolution Tube #1,"[1]; time point 1 h, 37° C.",0.0%
same,% Dissolution Tube #2,"[1]; time point 1 h, 37° C.",0.0%
same,% Dissolution Tube #3,"[1]; time point 1 h, 37° C.",0.0%
same,% Dissolution Average %,[1]; [5],0.8% and 0.7%
same,% Dissolution Tube #1,[1]; [5],0.2% and 0.6%
same,% Dissolution Tube #2,[1]; [5],1.4% and 0.5%
same,% Dissolution Tube #3,[1]; [5],0.7% and 0.8%
same,% Dissolution Average %,[1]; [6],2.2% and 2.3%
same,% Dissolution Tube #1,[1]; [6],1.3% and 2.4%
same,% Dissolution Tube #2,[1]; [6],2.8% and 2.0%
same,% Dissolution Tube #3,[1]; [6],2.4% and 2.6%
same,% Dissolution Average %,[1]; [7],17.8% and 19.0%
same,% Dissolution Tube #1,[1]; [7],14.5% and 19.0%
same,% Dissolution Tube #2,[1]; [7],20.4% and 18.2%
same,% Dissolution Tube #3,[1]; [7],18.7% and 19.7%
same,% Dissolution Average %,[1]; [8],21.3% and 22.4%
same,% Dissolution Tube #1,[1]; [8],17.5% and 22.4%
same,% Dissolution Tube #2,[1]; [8],24.0% and 21.5%
same,% Dissolution Tube #3,[1]; [8],22.4% and 23.2%
same,% Dissolution Average %,[1]; [9],46.2% and 48.5%
same,% Dissolution Tube #1,[1]; [9],38.7% and 49.1%
same,% Dissolution Tube #2,[1]; [9],51.4% and 45.6%
same,% Dissolution Tube #3,[1]; [9],48.6% and 50.9%
same,% Dissolution Average %,[1]; [10],70.5% and 73.9%
same,% Dissolution Tube #1,[1]; [10],59.6% and 75.1%
same,% Dissolution Tube #2,[1]; [10],78.1% and 69.1%
same,% Dissolution Tube #3,[1]; [10],74.0% and 77.7%
